Experimental data from PMC9271180 (Proceedings of the National Academy of Sciences of the …, 2022).

Legend:
HrtBA = conditions: 2 mM ATP; lipid nanodiscs; 37 °C; activation of ATPase; site in HrtB dimer
[1] = target: HrtB permease subunit of the heme efflux pump HrtBA from Corynebacterium diphtheriae (Corynebacterium diphtheriae NCTC13129); assay: crystal structure

Row | Compound | EC50 (HrtBA) | stoichiometry N [1]
1 | C=CC1=C(C)C2=Cc3c(C=C)c(C)c4[n]3[Fe+][n]3c(c(C)c(CCC(=O)O)c3=CC3=NC(=C4)C(C)=C3CCC(=O)O)=CC1=N2 [heme] | 900 nM | –
2 | HrtB permease subunit of the heme efflux pump HrtBA from Corynebacterium diphtheriae (natural protein) | – | 2
